Structures are written as SMILES.

For the assay, the target named is DaCld (Dechloromonas aromatica (nom. nud.), UniProt Q47CX0). Particulars: MCD as HOCl trap.
Sequence of DaCld (Q47CX0 35-282 limits assumed): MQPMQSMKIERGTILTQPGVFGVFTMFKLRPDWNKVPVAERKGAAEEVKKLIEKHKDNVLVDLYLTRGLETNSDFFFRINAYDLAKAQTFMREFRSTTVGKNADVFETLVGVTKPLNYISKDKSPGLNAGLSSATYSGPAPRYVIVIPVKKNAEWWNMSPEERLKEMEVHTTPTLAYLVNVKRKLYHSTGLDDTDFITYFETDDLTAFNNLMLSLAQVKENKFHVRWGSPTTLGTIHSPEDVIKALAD

As to `[O-][Cl+]O` [chlorite], the “reaction with chlorite in the presence of MCD (UV-visible)” value is on record as “no MCD-trappable HOCl could be detected for DaCld under conditions similar to those used”.

The values above are taken from PMC4303309 (Biochemistry, 2014).
